# Data taken from the kinase profiling compilation of Christmann-Franck et al. (2016).
# Columns and labels:
# Assay in all cases: radiometric filter-binding kinase assay
# CSK (human) = CSK (human) (UniProt P41240); details: compound 100.0 µM; ATP 20 µM
# YES1 (human) = YES1 (human) (UniProt P07947); details: compound 100.0 µM; ATP 20 µM
# AURKB (human) = AURKB (human) (UniProt Q96GD4); details: compound 100.0 µM; ATP 20 µM
# SRPK1 (human) = SRPK1 (human) (UniProt Q96SB4); details: compound 100.0 µM; ATP 50 µM
# GSK3B (human) = GSK3B (human) (UniProt P49841); details: compound 100.0 µM; ATP 5 µM
# IGF1R (human) = IGF1R (human) (UniProt P08069); details: compound 100.0 µM; ATP 5 µM
# RIPK2 (human) = RIPK2 (human) (UniProt O43353); details: compound 100.0 µM; ATP 20 µM
# CHEK2 (human) = CHEK2 (human) (UniProt O96017); details: compound 100.0 µM; ATP 20 µM
# IRAK4 (human) = IRAK4 (human) (UniProt Q9NWZ3); details: compound 100.0 µM; ATP 20 µM
# MAPK11 (human) = MAPK11 (human) (UniProt Q15759); details: compound 100.0 µM; ATP 20 µM
# PAK4 (human) = PAK4 (human) (UniProt O96013); details: compound 100.0 µM; ATP 5 µM
# MAP3K7 TAB1 (human) = MAP3K7 TAB1 (human) (UniProt Q15750+O43318); details: compound 100.0 µM; ATP 5 µM
# [1] = tested on: SGK1 (human), O00141 [S422D]; details: compound 100.0 µM; ATP 20 µM
# TTK (human) = TTK (human) (UniProt P33981); details: compound 100.0 µM; ATP 20 µM
# MAPK14 (human) = MAPK14 (human) (UniProt Q16539); details: compound 100.0 µM; ATP 50 µM
# IKBKB (human) = IKBKB (human) (UniProt O14920); details: compound 100.0 µM; ATP 5 µM
# STK3 (human) = STK3 (human) (UniProt Q13188); details: compound 100.0 µM; ATP 20 µM
# PAK7 (human) = PAK7 (human) (UniProt Q9P286); details: compound 100.0 µM; ATP 20 µM
# SRC (human) = SRC (human) (UniProt P12931); details: compound 100.0 µM; ATP 50 µM
# PRKCG (human) = PRKCG (human) (UniProt P05129); details: compound 100.0 µM; ATP 20 µM
# MAPK12 (human) = MAPK12 (human) (UniProt P53778); details: compound 100.0 µM; ATP 5 µM
# CAMKK2 (human) = CAMKK2 (human) (UniProt Q96RR4); details: compound 100.0 µM; ATP 20 µM
# [2] = target: PRKAA1 PRKAB2 PRKAG1 (human) (UniProt O43741+Q13131+P54619); details: compound 100.0 µM; ATP 20 µM
# HIPK1 (human) = HIPK1 (human) (UniProt Q86Z02); details: compound 100.0 µM; ATP 20 µM
# MKNK1 (human) = MKNK1 (human) (UniProt Q9BUB5); details: compound 100.0 µM; ATP 50 µM
# [3] = target: STK11 CAB39 STRADA (human) (UniProt Q9Y376+Q7RTN6+Q15831); details: compound 100.0 µM; ATP 20 µM
# MAP2K1 (human) = MAP2K1 (human) (UniProt Q02750); details: compound 100.0 µM; ATP 5 µM
# CLK2 (human) = CLK2 (human) (UniProt P49760); details: compound 100.0 µM; ATP 5 µM
# MAPKAPK5 (human) = MAPKAPK5 (human) (UniProt Q8IW41); details: compound 100.0 µM; ATP 20 µM
# CHEK1 (human) = CHEK1 (human) (UniProt O14757); details: compound 100.0 µM; ATP 20 µM
# JAK2 JH1 JH2 (human) = JAK2 JH1 JH2 (human) (UniProt O60674); details: compound 100.0 µM; ATP 5 µM
# PDPK1 (human) = PDPK1 (human) (UniProt O15530); details: compound 100.0 µM
# EPHB3 (human) = EPHB3 (human) (UniProt P54753); details: compound 100.0 µM; ATP 20 µM
# [4] = tested on: PAK2 (human), Q13177 [T402E]; details: compound 100.0 µM; ATP 20 µM
# PLK1 (human) = PLK1 (human) (UniProt P53350); details: compound 100.0 µM; ATP 5 µM
# GCK (human) = GCK (human) (UniProt Q12851); details: compound 100.0 µM; ATP 20 µM
# DYRK2 (human) = DYRK2 (human) (UniProt Q92630); details: compound 100.0 µM; ATP 50 µM
# MARK4 (human) = MARK4 (human) (UniProt Q96L34); details: compound 100.0 µM; ATP 50 µM
# MAP2K2 (human) = MAP2K2 (human) (UniProt P36507); details: compound 100.0 µM; ATP 5 µM
# Sequence of MAP2K2 (human) (P36507 whole entry, looked up): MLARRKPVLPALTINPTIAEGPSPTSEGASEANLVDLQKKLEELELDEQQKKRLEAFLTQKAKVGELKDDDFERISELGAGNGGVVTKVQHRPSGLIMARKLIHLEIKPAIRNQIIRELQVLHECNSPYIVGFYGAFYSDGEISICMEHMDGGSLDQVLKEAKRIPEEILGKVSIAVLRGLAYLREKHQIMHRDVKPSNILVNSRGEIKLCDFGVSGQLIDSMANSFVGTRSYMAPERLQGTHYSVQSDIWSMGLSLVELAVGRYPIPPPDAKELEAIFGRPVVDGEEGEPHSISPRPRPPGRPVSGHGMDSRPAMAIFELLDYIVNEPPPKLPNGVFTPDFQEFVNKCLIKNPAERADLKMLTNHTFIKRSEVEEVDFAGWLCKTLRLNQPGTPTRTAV
# Sequence of IRAK4 (human) (Q9NWZ3 whole entry, looked up): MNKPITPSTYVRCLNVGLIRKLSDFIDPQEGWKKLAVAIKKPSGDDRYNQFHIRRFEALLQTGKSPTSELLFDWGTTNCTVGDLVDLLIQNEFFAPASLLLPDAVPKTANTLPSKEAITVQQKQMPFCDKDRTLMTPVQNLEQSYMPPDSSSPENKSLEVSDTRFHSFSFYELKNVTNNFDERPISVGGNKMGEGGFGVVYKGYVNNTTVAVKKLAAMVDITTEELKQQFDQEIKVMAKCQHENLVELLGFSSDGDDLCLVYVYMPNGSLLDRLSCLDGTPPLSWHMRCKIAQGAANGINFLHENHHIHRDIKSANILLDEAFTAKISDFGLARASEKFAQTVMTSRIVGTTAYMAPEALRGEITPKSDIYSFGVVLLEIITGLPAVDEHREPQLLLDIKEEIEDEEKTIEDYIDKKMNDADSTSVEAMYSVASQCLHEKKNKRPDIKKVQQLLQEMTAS
# Sequence of CHEK1 (human) (O14757 whole entry, looked up): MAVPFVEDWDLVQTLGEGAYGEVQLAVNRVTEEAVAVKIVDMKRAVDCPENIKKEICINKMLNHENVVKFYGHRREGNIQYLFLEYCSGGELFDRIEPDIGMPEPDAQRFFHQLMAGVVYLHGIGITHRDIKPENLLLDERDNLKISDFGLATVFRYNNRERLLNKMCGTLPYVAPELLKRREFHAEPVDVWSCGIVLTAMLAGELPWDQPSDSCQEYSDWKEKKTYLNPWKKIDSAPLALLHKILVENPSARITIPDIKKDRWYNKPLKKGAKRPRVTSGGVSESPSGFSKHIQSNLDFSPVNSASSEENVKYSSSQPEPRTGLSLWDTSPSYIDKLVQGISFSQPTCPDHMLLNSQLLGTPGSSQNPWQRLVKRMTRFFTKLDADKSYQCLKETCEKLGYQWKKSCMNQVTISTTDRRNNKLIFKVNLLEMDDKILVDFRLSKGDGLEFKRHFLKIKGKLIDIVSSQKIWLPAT
# Sequence of MAPK14 (human) (Q16539 whole entry, looked up): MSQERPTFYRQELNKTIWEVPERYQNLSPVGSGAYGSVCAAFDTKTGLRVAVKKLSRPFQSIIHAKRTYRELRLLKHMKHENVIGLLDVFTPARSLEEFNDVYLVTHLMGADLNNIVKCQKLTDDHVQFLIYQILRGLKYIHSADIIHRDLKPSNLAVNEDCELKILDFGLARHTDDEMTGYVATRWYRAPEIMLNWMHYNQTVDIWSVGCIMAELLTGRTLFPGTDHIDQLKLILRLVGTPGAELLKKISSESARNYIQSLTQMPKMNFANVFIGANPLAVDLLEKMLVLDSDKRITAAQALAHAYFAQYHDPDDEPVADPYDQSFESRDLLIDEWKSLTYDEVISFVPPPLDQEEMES
# Sequence of TTK (human) (P33981 whole entry, looked up): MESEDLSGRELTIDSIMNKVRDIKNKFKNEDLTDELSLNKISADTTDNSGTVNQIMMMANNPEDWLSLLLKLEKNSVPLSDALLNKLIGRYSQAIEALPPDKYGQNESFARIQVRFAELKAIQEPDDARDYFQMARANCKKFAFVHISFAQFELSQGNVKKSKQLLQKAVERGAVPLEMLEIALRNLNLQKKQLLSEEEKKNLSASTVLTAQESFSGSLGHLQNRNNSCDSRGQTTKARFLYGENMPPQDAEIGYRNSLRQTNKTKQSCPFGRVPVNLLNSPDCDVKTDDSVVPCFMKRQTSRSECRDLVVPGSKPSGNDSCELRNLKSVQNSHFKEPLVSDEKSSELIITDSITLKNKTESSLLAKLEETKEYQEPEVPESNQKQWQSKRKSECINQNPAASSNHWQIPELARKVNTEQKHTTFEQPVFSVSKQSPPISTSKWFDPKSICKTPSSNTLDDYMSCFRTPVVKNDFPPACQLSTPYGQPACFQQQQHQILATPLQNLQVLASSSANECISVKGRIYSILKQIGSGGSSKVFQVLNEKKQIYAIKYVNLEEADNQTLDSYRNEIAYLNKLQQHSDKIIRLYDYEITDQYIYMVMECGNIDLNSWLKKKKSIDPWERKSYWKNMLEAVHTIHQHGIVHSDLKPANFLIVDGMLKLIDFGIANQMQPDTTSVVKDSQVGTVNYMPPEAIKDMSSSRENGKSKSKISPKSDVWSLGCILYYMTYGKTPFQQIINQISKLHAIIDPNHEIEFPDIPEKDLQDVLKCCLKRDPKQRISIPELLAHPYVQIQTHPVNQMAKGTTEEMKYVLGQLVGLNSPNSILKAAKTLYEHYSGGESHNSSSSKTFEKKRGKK
# Sequence of MAP2K1 (human) (Q02750 whole entry, looked up): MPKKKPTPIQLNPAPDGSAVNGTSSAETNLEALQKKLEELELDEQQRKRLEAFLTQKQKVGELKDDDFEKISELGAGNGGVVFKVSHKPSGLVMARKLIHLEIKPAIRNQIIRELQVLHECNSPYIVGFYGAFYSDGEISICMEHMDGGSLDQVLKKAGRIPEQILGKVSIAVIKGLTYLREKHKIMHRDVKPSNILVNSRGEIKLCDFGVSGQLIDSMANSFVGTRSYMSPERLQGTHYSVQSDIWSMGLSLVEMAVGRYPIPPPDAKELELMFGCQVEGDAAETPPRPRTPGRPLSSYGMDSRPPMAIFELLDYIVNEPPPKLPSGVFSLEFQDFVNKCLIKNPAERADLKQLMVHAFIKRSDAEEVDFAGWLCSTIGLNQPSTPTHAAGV
# Sequence of MAP3K7 TAB1 (human) (O43318 whole entry, looked up): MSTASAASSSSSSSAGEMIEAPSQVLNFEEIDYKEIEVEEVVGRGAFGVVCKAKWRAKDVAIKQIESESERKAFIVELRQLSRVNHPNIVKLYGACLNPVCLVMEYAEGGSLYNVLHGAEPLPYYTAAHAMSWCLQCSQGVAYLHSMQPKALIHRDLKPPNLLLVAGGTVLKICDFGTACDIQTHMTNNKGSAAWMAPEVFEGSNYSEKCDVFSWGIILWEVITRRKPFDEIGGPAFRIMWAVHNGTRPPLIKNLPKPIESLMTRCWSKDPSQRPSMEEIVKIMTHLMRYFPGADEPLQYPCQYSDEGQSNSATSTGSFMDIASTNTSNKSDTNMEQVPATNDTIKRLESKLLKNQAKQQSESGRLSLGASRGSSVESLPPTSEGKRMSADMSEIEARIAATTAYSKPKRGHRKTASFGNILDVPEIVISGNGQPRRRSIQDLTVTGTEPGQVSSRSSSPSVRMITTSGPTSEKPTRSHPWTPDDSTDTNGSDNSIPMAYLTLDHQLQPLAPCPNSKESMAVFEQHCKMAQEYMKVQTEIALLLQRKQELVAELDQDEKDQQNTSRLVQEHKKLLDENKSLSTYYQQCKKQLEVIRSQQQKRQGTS
# Sequence of MAP3K7 TAB1 (human) (Q15750 whole entry, looked up): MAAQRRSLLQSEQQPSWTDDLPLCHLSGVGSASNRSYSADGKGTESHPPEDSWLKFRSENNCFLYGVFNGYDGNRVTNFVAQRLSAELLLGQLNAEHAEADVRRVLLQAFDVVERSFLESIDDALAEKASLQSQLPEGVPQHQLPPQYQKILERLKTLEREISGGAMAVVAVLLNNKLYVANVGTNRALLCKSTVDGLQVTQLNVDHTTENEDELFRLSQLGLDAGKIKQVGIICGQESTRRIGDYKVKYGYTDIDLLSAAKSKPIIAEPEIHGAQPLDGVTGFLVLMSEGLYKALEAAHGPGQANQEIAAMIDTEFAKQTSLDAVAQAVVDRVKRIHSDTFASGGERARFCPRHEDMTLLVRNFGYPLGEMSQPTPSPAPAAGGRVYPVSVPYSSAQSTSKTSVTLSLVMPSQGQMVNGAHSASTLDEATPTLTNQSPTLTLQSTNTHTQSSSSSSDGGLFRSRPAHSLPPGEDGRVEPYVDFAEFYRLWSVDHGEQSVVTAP
SMILES,inhibition (CSK (human)) [%],inhibition (YES1 (human)) [%],inhibition (AURKB (human)) [%],inhibition (SRPK1 (human)) [%],inhibition (GSK3B (human)) [%],inhibition (IGF1R (human)) [%],inhibition (RIPK2 (human)) [%],inhibition (CHEK2 (human)) [%],inhibition (IRAK4 (human)) [%],inhibition (MAPK11 (human)) [%],inhibition (PAK4 (human)) [%],inhibition (MAP3K7 TAB1 (human)) [%],inhibition [1] [%],inhibition (TTK (human)) [%],inhibition (MAPK14 (human)) [%],inhibition (IKBKB (human)) [%],inhibition (STK3 (human)) [%],inhibition (PAK7 (human)) [%],inhibition (SRC (human)) [%],inhibition (PRKCG (human)) [%],other results
COc1ccc(NC(=S)Nc2cnc3[nH]cnn3c2=O)cn1,20,30,0,42,2,0,0,14,0,0,15,2,0,0,0,0,0,0,38,0,inhibition (MAPK12 (human)): 0%; inhibition (CAMKK2 (human)): 0%; inhibition [2]: 0%; inhibition (HIPK1 (human)): 0%; inhibition (MKNK1 (human)): 3%; inhibition [3]: 0%; inhibition (MAP2K1 (human)): 11%; inhibition (CLK2 (human)): 1%; inhibition (MAPKAPK5 (human)): 3%; inhibition (CHEK1 (human)): 0%; inhibition (JAK2 JH1 JH2 (human)): 23%; inhibition (PDPK1 (human); ATP 20 µM): 29%; inhibition (PDPK1 (human); ATP 50 µM): 10%; inhibition (EPHB3 (human)): 8%; inhibition [4]: 17%; inhibition (PLK1 (human)): 8%; inhibition (GCK (human)): 0%; inhibition (DYRK2 (human)): 27%; inhibition (MARK4 (human)): 26%; inhibition (MAP2K2 (human)): 0%
O=c1c(NC(=S)NCc2ccccc2)cnc2[nH]ccn12,26,0,0,9,13,0,0,20,6,7,18,20,0,0,0,0,3,0,0,0,inhibition (MAPK12 (human)): 0%; inhibition (CAMKK2 (human)): 0%; inhibition [2]: 0%; inhibition (HIPK1 (human)): 0%; inhibition (MKNK1 (human)): 0%; inhibition [3]: 0%; inhibition (MAP2K1 (human)): 57%; inhibition (CLK2 (human)): 3%; inhibition (MAPKAPK5 (human)): 0%; inhibition (CHEK1 (human)): 0%; inhibition (JAK2 JH1 JH2 (human)): 0%; inhibition (PDPK1 (human); ATP 20 µM): 0%; inhibition (PDPK1 (human); ATP 50 µM): 0%; inhibition (EPHB3 (human)): 0%; inhibition [4]: 5%; inhibition (PLK1 (human)): 0%; inhibition (GCK (human)): 0%; inhibition (DYRK2 (human)): 13%; inhibition (MARK4 (human)): 21%; inhibition (MAP2K2 (human)): 0%
Nc1nc2cnc(-c3ccccc3)cn2n1,71,89,76,41,72,91,56,81,80,34,89,86,34,34,27,27,6,79,48,24,inhibition (MAPK12 (human)): 1%; inhibition (CAMKK2 (human)): 54%; inhibition [2]: 7%; inhibition (HIPK1 (human)): 28%; inhibition (MKNK1 (human)): 71%; inhibition [3]: 2%; inhibition (MAP2K1 (human)): 37%; inhibition (CLK2 (human)): 74%; inhibition (MAPKAPK5 (human)): 34%; inhibition (CHEK1 (human)): 45%; inhibition (JAK2 JH1 JH2 (human)): 76%; inhibition (PDPK1 (human); ATP 20 µM): 35%; inhibition (PDPK1 (human); ATP 50 µM): 6%; inhibition (EPHB3 (human)): 54%; inhibition [4]: 31%; inhibition (PLK1 (human)): 18%; inhibition (GCK (human)): 93%; inhibition (DYRK2 (human)): 63%; inhibition (MARK4 (human)): 44%; inhibition (MAP2K2 (human)): 35%
